Test [1] relates to Mycobacterium tuberculosis H37Rv (ATCC 27294). Kind of test: Mycobacterium tuberculosis assay (Microplate Alamar Blue Assay, MIC). The test is classed as cell-based. The note with it: pure compounds and controls, read-out: MTB H37Rv (MIC μM). (Alamar Blue is a resazurin reagent that responds to reducing activity.)
Test [2] relates to Plasmodium falciparum K1CB1. The test is described as follows: Antimalaria assay, [3H] hypoxanthine incorporation, K1CB1 strain. The test is classed as cell-based. The note with it: Plasmodium falciparum; pure compounds and controls; strain K1CB1; read-out: P. f (IC50 μM) K1CB1. Here is the method: (§1) Plasmodium falciparum TM4/8.2 and K1CB1 strains were maintained in RPMI 1640 medium supplemented with 8% human serum, 2.5 mM HEPES and 2 g/L sodium bicarbonate. Parasite cultures were incubated at 37 °C in a 3% CO2 incubator. The crude extracts/pure compounds were tested against TM4/8.2 and K1CB1 P. falciparum in vitro by the modified [^3H] hypoxanthine incorporation assay. Briefly, stock solutions of the crude extracts or pure compounds were prepared in DMSO. Various concentrations of the samples were incubated with malaria parasites with a final volume of 225 μL, 1% parasitemia, 1.5% hematocrit, 0.1% dimethylsulfoxide (DMSO) in 96-well plates. Plates were incubated for 16–18 h. Then, 25 μL [^3H]-hypoxanthine solution was added and incubated for 20 h. The parasites were harvested onto a UniFilter-96 GF/B plate (PerkinElmer, USA). The filters in the plates were air-dried, and then 25 μL of liquid scintillation fluid (Microscint, Packard) was added. The radioactivity was then measured using a microplate scintillation counter (TopCount, Packard). The IC50 values of the crude extracts/ pure compounds were determined.

The subject of test [3] is Plasmodium falciparum TM4/8.2. Kind of test: Antimalaria assay, [3H] hypoxanthine incorporation, TM4/8.2 strain. The test is classed as cell-based. The note with it: read-out: P. f (IC50 μM) TM4/8.2. On the procedure: as §1
The subject of test [4] is T. brucei rhodesiense (STIB-900). The test is described as follows: Anti-trypanosomal assay (Alamar Blue, 72 h). The format is cell-based, Trypanosoma brucei rhodesiense. The note with it: Trypanosoma brucei, RHODESIENSE, 72 h, pure compounds and control; 72 h; read-out: T. br (IC50 μM). On the procedure:
T. brucei rhodesiense (STIB-900) was maintained in Minimal Essential Medium (MEM) with Earle’s salts supplemented with 3 g/L sodium bicarbonate, 4.5 g/L glucose, 25 mM HEPES, pH 7.3, 0.05 mM bathocuproinedisulfonic acid disodium salt, 1.5 mM L-cysteine, 1 mM hypoxanthine, 0.16 mM thymidine, 1 mM sodium pyruvate, 0.2 mM 2-mercaptoethanol, 1% MEM non-essential amino acid, and 15% heated fetal bovine serum, at 37 °C in a 5% CO2 incubator. To assay anti-Tbr activity, a modified reported protocol was used. Briefly, 2 × 10^4 T. brucei rhodesiense parasites in 175 μL culture media were incubated with 25 μL of varying concentrations of each compound in a 96-well plate under the same culture conditions. Following 72 h incubation, 20 μL Alamar Blue (a resazurin solution) was added in each well. The mixture was further incubated for 3 h. The fluorescence signals were measured by a spectrofluorometer at ex530/em585 nm.

In test [5] the target is α-amylase (AA). Kind of test: α-amylase inhibitory activity (AAI), starch-iodine assay. The note with it: in 50% DMSO. The test is classed as biochemical. Here is the method:
AAI values were determined using a microplate-based starch–iodine assay. Assay reactions were initiated by adding 40 μL of starch (Sigma S-2630) solution (2.0 g/L) and 40 μL of enzyme in 0.1 M phosphate buffer at pH 7.0 to microplate wells. The enzyme was incubated with the samples for 5 min before adding the substrate. To minimize evaporative loss during incubation, a plastic mat was used to cover the microplate. […] Following color development, the absorbance at 580 nm was measured using a microplate reader (Bio-TEK ELx808 microplate reader, USA).

Test [6] addresses T1, α-glucosidase (AG) (Saccharomyces cerevisiae, UniProt P53341).
T1 construct: purchased Sigma
The test is described as follows: biochemical. Also noted: species or system S. cerevisiae. Here is the method: AGI values of extracts and pure phytochemicals were quantitatively determined in a 96-well plastic plate according to the method described by Nguyen et al.. The enzyme was incubated with the samples dissolved in DMSO for 5 min before adding the substrate. The inhibition was measured spectrophotometrically in 20 mM sodium phosphate buffer pH 6.0 at 37 °C using 3.0 mM p-nitrophenyl α-D-glucopyranoside (Sigma) as the substrate and 0.25 units/mL of AG from S. cerevisiae (Sigma). The absorbance at 405 nm was measured using a microplate reader (BioTek ELx808 microplate reader, USA).

Molecules are shown by their SMILES.

The MIC is the lowest concentration found to suppress growth. What is called inhibition is the drop in the measured response relative to a control, in per cent.

T1 sequence (P53341 whole entry): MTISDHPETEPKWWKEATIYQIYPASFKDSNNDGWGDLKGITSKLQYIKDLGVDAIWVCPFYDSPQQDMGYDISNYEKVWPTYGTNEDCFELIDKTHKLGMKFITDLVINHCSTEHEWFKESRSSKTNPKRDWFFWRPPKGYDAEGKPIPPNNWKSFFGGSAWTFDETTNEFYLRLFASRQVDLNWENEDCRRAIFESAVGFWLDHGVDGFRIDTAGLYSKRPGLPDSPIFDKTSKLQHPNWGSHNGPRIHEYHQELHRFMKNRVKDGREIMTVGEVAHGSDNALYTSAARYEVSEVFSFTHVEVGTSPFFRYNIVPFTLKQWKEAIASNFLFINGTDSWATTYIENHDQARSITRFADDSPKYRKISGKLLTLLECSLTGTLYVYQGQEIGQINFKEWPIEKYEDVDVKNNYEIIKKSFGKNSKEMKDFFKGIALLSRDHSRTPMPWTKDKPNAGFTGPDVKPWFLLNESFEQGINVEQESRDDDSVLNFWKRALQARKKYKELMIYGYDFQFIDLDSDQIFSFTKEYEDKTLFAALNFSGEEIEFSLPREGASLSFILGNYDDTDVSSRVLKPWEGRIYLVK

As for `Oc1cc(O)c2c(c1)O[C@H](c1ccc(O)c(O)c1)[C@@H](O)C2` [Compound 3, (+)-catechin], the minimal inhibitory concentration (MIC) in test [1] is over 20 µM. Moreover, the IC50 was over 100 µM in test [2]; over 100 µM in test [3]; over 100 µM in test [4]; 2260 µM in test [5]; 360 µM in test [6] (in 50% DMSO). The inhibition at 250 µg/mL in test [6] (samples 250 μg/mL in 50% DMSO, read-out: % Inhibition (AGI activity)) is 97.5 ± 0.6%.

The values are drawn from paper PMC8438977, “Isolation of bioactive compounds from medicinal plants used in traditional medicine: Rautandiol B, a potential lead compound against Plasmodium falciparum” (BMC Complementary Medicine and Therapies, 2021).
